Test results reported in patent publication US5565566A (Discovery Therapeutics, Inc., priority 1995, dated 1996).
Read-outs that look alike come from different tables or passages of the source. One block for each molecule: values may come before it.

Assays:
A1 adenosine receptors = molecular target: T1, A1 adenosine receptors (Cavia porcellus, UniProt P47745); experiment: antagonism of adenosine agonists: reduction in force of contraction of guinea pig atrium (A1); details: for competitive antagonism at adenosine receptors in the atria / basal force of contraction in the atria: guinea pig atria
T1 construct: The left atria from male guinea pigs were isolated; from tissue; host or cells: guinea pig left atrium
T1 sequence (P47745 1-326): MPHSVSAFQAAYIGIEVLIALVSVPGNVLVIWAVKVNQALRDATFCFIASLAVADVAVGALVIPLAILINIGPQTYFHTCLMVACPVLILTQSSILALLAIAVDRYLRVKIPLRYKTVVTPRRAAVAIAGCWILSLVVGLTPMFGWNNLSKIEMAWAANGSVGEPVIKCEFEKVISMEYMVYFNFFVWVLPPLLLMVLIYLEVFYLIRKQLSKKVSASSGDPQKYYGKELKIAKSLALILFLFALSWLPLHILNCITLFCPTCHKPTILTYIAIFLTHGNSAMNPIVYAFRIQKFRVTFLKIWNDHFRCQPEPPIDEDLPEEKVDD
Procedure: The left atria from male guinea pigs were isolated, suspended between two punctate electrodes, and placed in a 20 ml organ bath that contained Krebs-[…] solution that was continuously gassed with 95% O2 +5% CO2 and maintained at 31° C. The resting tension was one gram. The atria were stimulated electrically at 1 Hz, 1 msec duration pulses at supramaximal voltage. The force of contraction was recorded isometrically. The ability of the compounds to antagonize the effects of agonists was analyzed using modified Schild plots.

A2 adenosine receptors = experiment: antagonism of adenosine agonists: decrease in contractile tone of guinea pig taenia caecum (A2); details: for selectivity for A1 adenosine receptors (functional tissues): atrium (A1) vs taenia caecum (A2); for antagonism of the effects of adenosine agonists in relaxing the taenia caecum: modified Schild plots; for sensitization of the tissue (larger agonist response): taenia caecum, high concentrations of the compound
Procedure: Taenia from the guinea pig caecum were cut into lengths of 1.5-2 cm. The tissues were suspended in a 20 ml organ bath containing de Jalon's solution that was gassed with 95% O2 +5% CO2 and maintained at 31° C. […] The contractile response was measured isotonically. […] The ability of the compounds to antagonize the effects of agonists was analyzed using modified Schild plots.

A1 receptors [1] = molecular target: T2, A1 receptors (Rattus norvegicus, UniProt P25099); experiment: in vivo test on heart rate / ECG of anesthetized rats
T2 sequence (P25099 1-326): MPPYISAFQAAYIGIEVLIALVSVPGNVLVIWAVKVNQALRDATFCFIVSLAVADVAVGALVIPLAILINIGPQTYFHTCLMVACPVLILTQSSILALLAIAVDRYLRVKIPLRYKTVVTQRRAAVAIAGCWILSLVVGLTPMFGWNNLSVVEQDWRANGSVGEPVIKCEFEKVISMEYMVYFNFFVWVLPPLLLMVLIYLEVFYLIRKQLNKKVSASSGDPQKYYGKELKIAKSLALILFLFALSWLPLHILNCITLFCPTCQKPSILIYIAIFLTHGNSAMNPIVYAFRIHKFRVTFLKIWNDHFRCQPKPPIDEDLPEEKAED
Procedure: (§1) Rats were anesthetized with urethan and blood pressure was monitored via a carotid cannula. Drug injections were made intravenously through a jugular cannula. Blood pressure, EGC, and heart rate were recorded on a Grass polygraph.

A2 receptors [2] = experiment: in vivo test on blood pressure of anesthetized rats; details: prior administration, anesthetized rat
Procedure: as §1

[3] = molecular target: T3, rat cortical A1 receptors (Rattus norvegicus, UniProt P25099); experiment: displacement of [3H]-CHA from rat cortical A1 receptors; format: binding; details: [3H]-CHA; rat cortical A1 receptors; read-out: Rat Cortical Binding Constant Ki
T3 construct: rat cortical membranes were the receptor source; from tissue; host or cells: rat cerebral cortex (male Sprague Dawley) membranes
T3 sequence (P25099 1-326): T2 sequence (P25099 1-326)
Procedure: (§2) Varying concentrations of test compounds were incubated with the appropriate radioligand and membrane source for 1 hr at room temperature.
(§3) Assays were terminated by filtration over Whatman GF/B filters that had been pre-soaked with 0.1% polyethyleneimine using a 24 port Brandell cell havester. The filters were washed three times with 3 ml of ice cold buffer and transfered to plastic scintillation vials to which 4 ml of Beckman Ready protein scintillation cocktail was added. The tubes were shaken and counted in a Beckman 3801 scintillation counter that converted cpm to dpm.
(§4) Data were analyzed by utilizing the Ligand, commercial computer program (Munson and Rodbard, 1980).
(§5) Male Sprague Dawley rats were killed by decapitation and the brains removed. The cerebral cortices were homogenized in 50 mm Tris; 2mm MgCl2 (pH 7.4), and centrifuged at 40,000×g for 10 minutes. […] The homogenate was centrifuged, washed once, resuspended to a protein concentration of 5-10 mg/ml and frozen at -70° C. until use.

A2 receptors [4] = molecular target: T4, A2 receptors (Bos taurus, UniProt E1BKU0); experiment: [3H]-NECA binding, bovine caudate membranes (A2); details: Table 4, with 50 nM cyclopentyl-adenosine
T4 construct: bovine caudate was the source of membranes; from tissue; host or cells: bovine caudate nuclei (membranes)
Procedure: Further tests to discover the affinities of test compounds at A2 receptors were conducted.
To provide bovine caudate nuclei, bovine brains were obtained fresh from a local slaughterhouse. The caudate nuclei were dissected out and homogenized in Buffer A (50 mm Tris; 1 mm Na2-EDTA; 5 mm KCl; 1 mm MgCl2; 2 mm CaCl2; pH 7.4) using a Brinkman Polytron. The homogenate was centrifuged at 40,000×g for 20 minutes and washed once. The pellet was resuspended in Buffer A, incubated at 37° C. for 15 minutes, then centrifuged. The pellet was washed once more, resuspended to a protein concentration of 5-10 mg/ml in Buffer A and frozen at -70° C. until use.
as §2, §3, §4

A1 receptors [5] = molecular target: T2, A1 receptors; experiment: [3H]-CHA binding, rat cortical membranes (A1), selectivity experiment of Table 4; set-up: Rat Brain Membranes; from tissue; host or cells: rat brain (membranes)
Procedure: as §2, §3, §4, §5

adenosine receptor = details: cited from earlier work
A2 receptors [6] = molecular target: T5, A2 receptors (Rattus norvegicus, UniProt P30543); experiment: antagonism of NECA-stimulated adenylate cyclase in rat PC12 membranes (B); format: biochemical
T5 construct: Rat PC12 Membranes; endogenous in cells; host or cells: PC12

[7] = system: adenosine-induced cyclic Amp accumulation in a human fibroblast cell line; details: low concentrations; cited from earlier work
A1 receptors [8] = molecular target: T2, A1 receptors; experiment: prevention of R-PIA-induced inhibition of adenylate cyclase in rat fat cell membranes (C); format: biochemical; set-up: from tissue
Procedure: (§6) For activity at A1 receptors, compounds were tested as inhibitors of the binding of N^6 -[…]-[3H]-Phenylisopropyladenosine in rat brain membranes and for their ability to prevent R-PIA-induced inhibition of adenylate cyclase in rat fat cell membranes.
(C) Rat Fat Cell Membranes

A1 receptors [9] = molecular target: T2, A1 receptors; experiment: inhibition of binding of [3H]-phenylisopropyladenosine in rat brain membranes (D); set-up: Rat Brain Membranes; from tissue; host or cells: rat brain (membranes)
Procedure: as §6
(D) Rat Brain Membranes

A2 receptors [10] = details: vs N^6 -substituted adenosine analogs; cited from earlier work
A2 receptors [11] = molecular target: T6, A2 receptors (Homo sapiens, UniProt P29274); experiment: antagonism of NECA-stimulated adenylate cyclase in human platelet membranes (A); format: biochemical; details: for Kb: (A) Human Platelet Membranes, A2 Effects
T6 construct: Human Platelet Membranes; from tissue; host or cells: human platelets (membranes)

[12] = (B) Rat PC12 Membranes, A2 Effects
[13] = guinea pig atrium, modified Schild plots
[14] = (C) Rat Fat Cell Membranes, A1 Effects, read-out: KB vs PIA INHIBITION (Adenylate Cyclase)

T6 sequence (P29274 whole entry): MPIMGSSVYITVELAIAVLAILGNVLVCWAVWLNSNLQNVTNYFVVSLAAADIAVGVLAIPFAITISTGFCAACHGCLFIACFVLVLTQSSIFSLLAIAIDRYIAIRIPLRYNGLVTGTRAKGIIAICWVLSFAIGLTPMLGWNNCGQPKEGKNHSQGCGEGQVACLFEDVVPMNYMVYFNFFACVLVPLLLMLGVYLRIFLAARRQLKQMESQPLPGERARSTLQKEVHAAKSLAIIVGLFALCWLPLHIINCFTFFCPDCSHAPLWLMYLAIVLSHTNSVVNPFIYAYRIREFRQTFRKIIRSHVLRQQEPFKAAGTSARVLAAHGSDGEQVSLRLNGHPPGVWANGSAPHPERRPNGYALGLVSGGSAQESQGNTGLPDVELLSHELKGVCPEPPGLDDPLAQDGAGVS
T5 sequence (P30543 whole entry): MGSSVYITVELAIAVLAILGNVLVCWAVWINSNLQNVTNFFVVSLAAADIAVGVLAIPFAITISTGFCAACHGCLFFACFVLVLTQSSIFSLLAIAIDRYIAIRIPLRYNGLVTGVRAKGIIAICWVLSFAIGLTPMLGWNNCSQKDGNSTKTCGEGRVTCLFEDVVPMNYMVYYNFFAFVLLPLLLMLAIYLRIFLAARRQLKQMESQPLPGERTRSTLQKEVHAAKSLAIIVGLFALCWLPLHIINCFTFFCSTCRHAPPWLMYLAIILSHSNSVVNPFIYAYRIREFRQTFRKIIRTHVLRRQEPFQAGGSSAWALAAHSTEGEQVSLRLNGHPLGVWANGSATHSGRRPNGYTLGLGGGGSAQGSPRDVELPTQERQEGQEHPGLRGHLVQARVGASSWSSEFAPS
T4 sequence (E1BKU0 1-401): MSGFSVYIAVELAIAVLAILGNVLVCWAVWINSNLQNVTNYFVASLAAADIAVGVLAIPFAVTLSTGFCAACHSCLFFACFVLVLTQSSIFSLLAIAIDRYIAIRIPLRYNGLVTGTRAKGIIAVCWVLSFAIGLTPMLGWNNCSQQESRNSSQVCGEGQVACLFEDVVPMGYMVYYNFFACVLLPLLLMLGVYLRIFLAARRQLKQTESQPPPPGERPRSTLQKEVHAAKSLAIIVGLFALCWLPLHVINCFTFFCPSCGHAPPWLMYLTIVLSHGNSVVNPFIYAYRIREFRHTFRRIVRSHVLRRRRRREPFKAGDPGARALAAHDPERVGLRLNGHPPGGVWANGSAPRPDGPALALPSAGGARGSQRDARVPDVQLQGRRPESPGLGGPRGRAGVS

Compound: Cn1cnc2c(N[C@H]3C[C@H]4CC[C@@H]3C4)ncnc21 (relative stereo) [compound 0861, N^6-(endo-2-Norbornyl)-9-Methyladenine]
potency ranking as antagonist (A1 adenosine receptors; among the Table 2 examples): the most potent antagonist | competitive antagonism at adenosine receptors in the atria (A1 adenosine receptors): competitive antagonists at adenosine receptors in the atria | selectivity for A1 adenosine receptors (functional tissues) (A2 adenosine receptors): selective for A1 adenosine receptors | antagonism of the effects of adenosine agonists in relaxing the taenia caecum (A2 adenosine receptors): did not competitively antagonize the effects of adenosine agonists in relaxing the taenia caecum | sensitization of the tissue (larger agonist response) (A2 adenosine receptors): some sensitization of the tissue | cardio-selectivity in vivo (A1 receptors [1]): cardio-selective adenosine receptor antagonist in vivo | effects of subsequently administered adenosine on all parameters measured (blood pressure, heart rate, P-R interval) (A1 receptors [1]; intravenous): attenuated the effects of subsequently administered adenosine on all parameters measured | heart block caused by high doses of adenosine (A1 receptors [1]; intravenous): substantially reduced | effects of NECA on the heart (A1 receptors [1]; prior administration): attenuated the effects of NECA on the heart | NECA-induced decrease in blood pressure (A2 receptors [2]): minimally affecting the NECA-induced decrease in blood pressure | Ki [3]: 0.116 µM | Ki (A2 receptors [4]): 6.96 µM | selectivity for A1 receptors over A2 receptors (A1 receptors [5]; A1 vs A2): 170 fold | Ki (A1 receptors [5]; Table 4, [3H]-CHA, rat cortical membranes per text): 0.041 µM

Compound: Cn1c(=O)c2[nH]c(-c3ccccc3)nc2n(C)c1=O [8-phenyltheophylline (8-PT), 8-phenyltheophylline, reference compound]
antagonism of the effects of adenosine agonists in relaxing the taenia caecum (A2 adenosine receptors): did antagonize the effects of agonists at low concentrations | sensitization of the tissue (larger agonist response) (A2 adenosine receptors): Sensitization is also observed | selectivity among adenosine receptors (adenosine receptor): non-selective adenosine receptor antagonist

Compound: Nc1ncnc2nc[nH]c12 [Adenine, reference compound]
Kb (A2 receptors [6]): 570 µM | antagonism of adenosine-induced cyclic Amp accumulation [7]: specific competitive antagonism | Kb (A1 receptors [8]): > 1000 µM | Ki (A1 receptors [9]): > 100 µM

Compound: Nc1ncnc2c1ncn2[C@@H]1O[C@H](CO)[C@@H](O)[C@H]1O [Adenosine, reference compound]
heart block at high doses (A1 receptors [1]; high doses): causes heart block

Compound: CCNC(=O)[C@H]1O[C@@H](n2cnc3c(N)ncnc32)[C@H](O)[C@@H]1O [NECA, 5'-N-ethylcarboxamido-adenosine]
potency at A2 receptors (A2 receptors [10]): more potent than N^6 -substituted analogs

Kb (A1 adenosine receptors; guinea pig atrium, modified Schild plots, read-out: affinity constant pKB (converted)): 4.37 µM
Compound: CCC(Cc1cccs1)Nc1ncnc2c1ncn2C (centres unmarked) [N^6-1-(2-Thienyl)-2-butyl)-9-MA, N^6-1-(2-Thienyl)-2-butyl-9-MA]
basal force of contraction in the atria (A1 adenosine receptors): increases in basal force of contraction in the atria | competitive antagonism at adenosine receptors in the atria (A1 adenosine receptors): competitive antagonists at adenosine receptors in the atria

Kb (A2 receptors [11]): 11 µM | Kb (A2 receptors [6]; [12]): 53 µM | affinity constant pKB (A1 adenosine receptors; [13]): 5.4 ± 0.14 | selectivity for A1 adenosine receptors (functional tissues) (A2 adenosine receptors): selective for A1 adenosine receptors | Kb (A1 receptors [8]; [14]): 7.6 µM | Ki (A1 receptors [9]; (D) Rat Brain Membranes, A1 Effects, read-out: Ki vs [^3 H] PI (Binding)): 3.3 µM
Compound: CCC(CC)Nc1ncnc2c1ncn2C [N^6-3-Pentyl-9-MA, N^6-3-Pentyl-9-Methyladenine]
basal force of contraction in the atria (A1 adenosine receptors): increases in basal force of contraction in the atria | competitive antagonism at adenosine receptors in the atria (A1 adenosine receptors): competitive antagonists at adenosine receptors in the atria | antagonism of the effects of adenosine agonists in relaxing the taenia caecum (A2 adenosine receptors): did not competitively antagonize the effects of adenosine agonists in relaxing the taenia caecum | sensitization of the tissue (larger agonist response) (A2 adenosine receptors): some sensitization of the tissue

Kb (A2 receptors [11]): 4.9 µM | potency relative to 9-methyladenine at A2 receptors (A2 receptors [11]; human platelet assay, vs 9-methyladenine): 5 fold | Kb (A2 receptors [6]; [12]): 25 µM | affinity constant pKB (A1 adenosine receptors; [13]): 6.17 ± 0.11 | selectivity for A1 adenosine receptors (functional tissues) (A2 adenosine receptors): selective for A1 adenosine receptors | Ki [3]: 0.375 µM | Kb (A1 receptors [8]; [14]): 1.3 µM | potency relative to 9-methyladenine at A1 receptors (A1 receptors [9]; A1 receptors, vs 9-methyladenine): at least 100 fold
Compound: Cn1cnc2c(NC3CCCC3)ncnc21 [compound 0840, N^6 -Cyclopentyl-9-Methyl Adenine]
competitive antagonism at adenosine receptors in the atria (A1 adenosine receptors): competitive antagonists at adenosine receptors in the atria | antagonism of the effects of adenosine agonists in relaxing the taenia caecum (A2 adenosine receptors): did not competitively antagonize the effects of adenosine agonists in relaxing the taenia caecum | sensitization of the tissue (larger agonist response) (A2 adenosine receptors): some sensitization of the tissue
